# Test results: US8067470B2, “Linoleic acid preparations for the topical treatment of male and female pattern androgenetic alopecia, age-related alopecia, and keratosis pilaris” (priority 2008, dated 2011)
# What was measured:
# balding scalp = experiment: observation of balding scalp in a person treated with 13-cis-retinoic acid for cystic acne; assay type: in vivo, human; conditions: person treated for five months for cystic acne
# Excerpt: Linoleic acid has been proven in vitro to prevent growth of P. acnes in culture at concentrations similar to the normal level found in follicles not influenced by DHT stimulation of oil production. […] 8 Leyden, James J. M D et al., “Qualitative and Quantitative Changes in Cutaneous Bacteria Associated with Systemic Isotretinoin Therapy for Acne Conglobata”, Journal of Investigative Dermatology, Vol. 86, 390-393, 1986.
# P. acnes [1] = conditions: parallel to reduction of sebaceous gland oil production; cited from earlier work
# male pattern AGA = conditions: cited from earlier work
# keratosis pilaris = experiment: topical linoleic acid oil in patients with keratosis pilaris; assay type: in vivo, human; conditions: in the form of an oil, more than 20 patients
# Excerpt: In pre-pubertal children prior to hormonal stimulation of facial oil production, it can be seen transiently on the cheeks, typically the least oily part of the face. […] The histology is reminiscent of the intra-follicular hyperkeratosis and low-level microinflammation seen in AGA follicles, except that AGA scalp follicles are larger and have large sebaceous glands opening into them. It is likely that localized linoleic acid deficiency with resultant aberrations in keratinization and in inflammation, due to permissive changes in microflora such as P. acnes and yeasts, is its etiology. Topical linoleic acid preparations would therefore be a logical approach to the treatment of the condition.
# P. acnes [2] = conditions: prior art of this inventor; cited from earlier work
smiles,measurement,setting,value
CC1=C(/C=C/C(C)=C/C=C/C(C)=C\C(=O)O)C(C)(C)CCC1 [13-cis-retinoic acid],terminal (full sized) hair growth in balding scalp,balding scalp,increased terminal (full sized) hair growth
same,P. acnes counts in acne-prone skin,P. acnes [1],parallel and equal reduction in P. acnes counts
CC(C)(C)NC(=O)[C@H]1CC[C@H]2[C@@H]3CC[C@H]4NC(=O)C=C[C@]4(C)[C@H]3CC[C@]12C [finasteride],recipients who lost less scalp hair,"male pattern AGA; after one month, oral",95%
same,recipients who began regrowing lost hairs,"male pattern AGA; after six months, oral",67%
same,balding recipients showing poor or no response,male pattern AGA; in vivo,≥ 35%
CCCCC/C=C\C/C=C\CCCCCCCC(=O)O [linoleic acid],roughness and redness of clinical keratosis pilaris,keratosis pilaris,amelioration of both the roughness and redness
same,concentration required to completely inhibit growth of P. acnes in culture,P. acnes [2],2%
